In patent US6753459B2, “Transgenic plants and methods for production thereof” (National Research Council of Canada, priority 1998, dated 2004):

Columns and labels:
[1] = tested on: Brassica napus hypocotyl explants (AG019, altered oil profiles); assay: Brassica napus transformation, NAA in callusing and recovery media; format: cell-based; settings: NAA added to callusing and recovery media; Brassica napus with altered oil profiles
Procedure: After co-cultivation, the cells are […] to callusing and recovery media for 7 days. Explants are then placed on selection medium containing macro and micro nutrients, vitamins and growth regulators which induce shoot formation. The selection medium also contains a bacteriocide, for example carbenicillin. Preferably, it also contains a selection agent. The cells are grown on the selection medium until shoots (putative transformants) develop. […] To enhance regeneration, any shoots which develop are transferred on a regular basis to fresh selection media. Plantlets are placed on a shoot elongation media and finally a rooting media.
A single colony of Agrobacterium containing the plant transformation vector construct is transferred to AB minimal medium (Watson et al., 1975) for 48 hr at 28° C., which gives at approx. density of 6×10^8 cfu/mL. Hypocotyls are harvested from the germinated seeds and transferred to the Pre-Culture medium (MMOM, 3% (w/v) sucrose, 5.0 mg/L BAP, 0.7% (w/v) agar, and NAA 0.1 mg/L, pH 5.8) and incubated for 3 days under the TC conditions described above. Hypocotyl explants are then transferred from the Pre-Culture medium to the AB minimal medium containing the Agrobacterium strain of interest and incubated for at least 2 min. […]

[2] = tested on: Plants without the oncogene 2; assay: Spray screen, plants without the oncogene 2; format: in vivo; settings: sprayed with formulated mixture
Procedure: A simple procedure is provided to screen for transgenic plants expressing the oncogene 2. Plant populations are sprayed with the formulated mixture of napthalene acetamide. […] Plants without the oncogene 2 are unaffected. Plants which have been affected are selected. These recover within 72 hours and continue to grow and set seed. This phenotypic response is transmitted to subsequent generations.

[3] = tested on: plants from JH 2984 and JH 2973 transformation events (pJH 125); assay: NAM as scorable marker agent in segregating populations JH 2984 and JH 2973; format: in vivo, Brassica napus; settings: NAM 1 mg/mL at the 2-3 leaf stage; 24 hours after application
Description: In this example, 20 plants from JH 2984 and JH 2973 transformation events were planted. These transgenic varieties were segregating 3:1 for the inserted plant transformation vector pJH 125. […] These plants were subjected to PCR analysis for the presence of the transformation vector.

Non-transformed plants [4] = assay: NAM spray of non-transformed Brassica napus plants; format: in vivo; settings: 200 ug/mL NAM with 0.1% Tween 20, sprayed to runoff
Description: (§1) Transformed Brassica napus plants containing the construct pJH 125 (35S oncogene 2) described above are recovered and tested using standard analysis to determine the presence of the inserted vector. […] Plants were sprayed to runoff using a pressurized sprayer. […] Non-transformed plants are unaffected by the treatment.

non-transgenic varieties = assay: NAM spray of non-transgenic Brassica napus varieties; format: in vivo; settings: 200 ug/mL NAM with 0.1% Tween 20, sprayed to runoff; 25 days after spraying
Description: (§2) Transformed Brassica napus plants containing the construct pJH 121 described above are recovered and tested using standard analysis to determine the presence of the inserted vector. […] Plants were sprayed to runoff using a pressurized sprayer.

[5] = tested on: Transformed Brassica napus plants containing the construct pJH 121; assay: NAM spray of transformed Brassica napus plants containing pJH121; format: in vivo; settings: 200 ug/mL NAM with 0.1% Tween 20, sprayed to runoff at three-four leaf stage; 25 days after spraying
Description: as §2

Non-transformed plants [6] = assay: NAM spray of non-transformed tobacco plants; format: in vivo; settings: 200 ug/mL NAM with 0.1% Tween 20, sprayed to runoff
Description: Transformed tobacco plants containing the pJH 121 construct described above are recovered and tested using standard analysis to determine the presence of the inserted vector. […] Plants were sprayed to runoff using a pressurized sprayer. […] Non-transformed plants are unaffected by the treatment.

[7] = tested on: Transgenic seedlings from JH2973 and JH2984 (pJH 125); assay: In vitro seed germination in the presence of NAM and NPA, transgenic seedlings; format: in vivo, Brassica napus
Description: (§3) Oncogene 2 can be used as a selectable marker in seed germination and embryo rescue in vitro assays, allowing for an even earlier determination of the presence of the transformation vector in segregating populations. […] The in vitro assay reduces the time and physical space (e.g. number of plants in growth chambers or under cultivation) required to identify homozygous transgenic lines, and the embryo rescue method allows selection and recovery of transformed seedlings which reduces generation to generation cycle time a breeding program.
(§4) Non-transformed segregants grew normally. […] The presence of the transformation vector in these plants was confirmed as above.

[8] = tested on: transgenic plants expressing the oncogene 2; assay: Spray screen for transgenic plants expressing the oncogene 2; format: in vivo
Description: A simple procedure is provided to screen for transgenic plants expressing the oncogene 2. […] Plants which have been affected are selected.

[9] = tested on: Non-transformed segregants; assay: In vitro seed germination in the presence of NAM and NPA, non-transformed segregants; format: in vivo, Brassica napus; settings: germinated in vitro in the presence of NAM and the auxin transport inhibitor NPA
Description: as §3, §4

[10] = tested on: Transformed Brassica napus plants containing the construct pJH 125 (35S oncogene 2); assay: NAM spray of transformed Brassica napus plants containing pJH125; format: in vivo; settings: 200 ug/mL NAM with 0.1% Tween 20, sprayed to runoff
Description: as §1

SMILES | formation of transgenic shoots [1] | effect on plants without the oncogene 2 [2] | visual phenotype of putative transgenics (confirmed by PCR) [3] | effect of treatment on non-transformed plants (Non-transformed plants [4]) | growth of non-transgenic varieties (non-transgenic varieties) | growth of transgenic plants [5] | effect of treatment on non-transformed plants (Non-transformed plants [6]) | recovery of putative transgenic seedlings ([7]; after transfer to non-selective media) | phenotype of transgenic seedlings ([7]; germinated in vitro in the presence of NAM and the auxin transport inhibitor NPA) | visual phenotype of transgenic plants ([8]; sprayed with formulated mixture, within 24 hours) | time to recovery of affected plants ([8]; sub-lethal spray, plants continue to grow and set seed) | growth of non-transformed segregants [9] | visual phenotype of transformed plants ([10]; 2 days after spraying) | visual phenotype of transformed plants ([10]; within 5 days)
O=C(O)Cc1cccc2ccccc12 [NAA, napthalene acetic acid] | greatly increases the formation of transgenic shoots |  |  |  |  |  |  |  |  |  |  |  |  | 
NC(=O)Cc1cccc2ccccc12 [NAM, napthalene acetamide] |  | unaffected | twisted leaves | unaffected | grew normally and flowered | remained stunted in growth | unaffected | recovered and grew normally | stunted seedlings, small cotyledons, stunted and swollen roots and callus at the root/shoot junction | epinasty and obvious visual phenotypic changes | ≤ 72 h | grew normally | leaves are drooping and the leaf margins curling | leaves are twisted and the plant shows typical auxin toxicity
